Literature values, collected in patent US9260379B2 (Ocera Therapeutics, Inc., priority 2010, dated 2016).

Conditions: free acid

## O=C(O)Cc1ccccc1 [phenyl acetic acid]
  pKa: ~4.28
